This note sets out measurements from publication PMC9609714, “Exploring Novel Pyridine Carboxamide Derivatives as Urease Inhibitors: Synthesis, Molecular Docking, Kinetic Studies and ADME Profile” (Pharmaceuticals, 2022).

Molecules are shown by their SMILES. Like-named read-outs stand apart in the source and are kept apart here.

Series [1] deals with T1, urease (Canavalia ensiformis, UniProt P07374). Description: biochemical. As for the experimental part:
The indophenol method was adopted for the estimation of urease inhibition activity for synthesized compounds with minor modification. In the assay, the total volume was kept at 100 µL which was composed of 10 µL urease having a concentration of 5 U/mL, 40 µL of phosphate buffer (0.01mM K2HPO4+ EDTA + […]); pH was adjusted to 8.15 using 40 µL of phenol reagent (1%, phenol, and sodium nitroprusside) and alkali reagent. This alkali reagent was composed of 0.5% of sodium hydroxide and 0.1% of active chloride (NaOCl). For the determination of urease activity, the test compound and enzyme were incubated for 30 min at 37 °C in the assay buffer; then phenol/alkali reagent was added. All reactions were performed in 96 well plates in a triplicate manner. Absorbance was measured at a wavelength of 625 nm using the instrument FLUOstar® Omega (BMG LABTECH, Ortenberg, Germany). Initially, the percentage inhibition was estimated for the test compounds and compared with a standard inhibitor of urease (thioureas). […] GraphPad (PRISM 8.0, San Diego, CA, USA) was utilized for the calculations of IC50 values. The synthesized compounds were dissolved in absolute ethanol for the percentage inhibition assay whereas dilutions were prepared in deionized water by keeping the final concentration at up to 1%. The standard inhibitor (thioureas) was used as a positive control in the assay whereas 1% ethanol was employed as a negative control during the assay.

The target in series [2] is T1, urease. Description: Enzyme kinetics study (Lineweaver–Burk plot) of urease inhibition. The format is biochemical. Particulars: compound 0.10-1.6 µM. The text has this:
By calculating the Lineweaver–Burk plot, the competitive mode of inhibition was shown by the compound Rx-6.

T1 sequence (P07374 whole entry, looked up): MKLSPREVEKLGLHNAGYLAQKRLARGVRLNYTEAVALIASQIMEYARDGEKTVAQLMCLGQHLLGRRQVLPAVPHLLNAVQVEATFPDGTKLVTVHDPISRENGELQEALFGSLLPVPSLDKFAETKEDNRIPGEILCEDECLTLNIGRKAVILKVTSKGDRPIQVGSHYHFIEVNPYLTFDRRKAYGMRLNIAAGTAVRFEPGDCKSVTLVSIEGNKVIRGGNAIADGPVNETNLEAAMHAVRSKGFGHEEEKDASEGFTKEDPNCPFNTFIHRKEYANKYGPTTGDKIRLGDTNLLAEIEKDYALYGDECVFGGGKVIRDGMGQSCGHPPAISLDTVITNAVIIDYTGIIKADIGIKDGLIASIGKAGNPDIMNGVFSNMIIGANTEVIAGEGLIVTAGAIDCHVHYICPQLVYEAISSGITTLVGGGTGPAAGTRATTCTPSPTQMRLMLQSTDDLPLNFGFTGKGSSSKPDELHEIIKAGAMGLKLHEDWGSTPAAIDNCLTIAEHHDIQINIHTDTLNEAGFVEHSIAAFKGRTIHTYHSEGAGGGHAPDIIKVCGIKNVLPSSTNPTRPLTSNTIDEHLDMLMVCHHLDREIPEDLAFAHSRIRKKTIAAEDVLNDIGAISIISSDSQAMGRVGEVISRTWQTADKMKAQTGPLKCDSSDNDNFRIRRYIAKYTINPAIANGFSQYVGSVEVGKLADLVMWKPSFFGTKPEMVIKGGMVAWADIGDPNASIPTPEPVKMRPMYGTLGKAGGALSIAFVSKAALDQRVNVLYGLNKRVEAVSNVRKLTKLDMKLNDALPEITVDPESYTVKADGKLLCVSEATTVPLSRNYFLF

The term melting point denotes the temperature of the solid-liquid transition. A word on the IC50: it is the point on the concentration scale where inhibition reaches its midpoint. Compound `COc1cccc(/C=N/NC(N)=O)n1` [Rx-10, 6-Methoxypyridine-2-yl methylene hydrazine carboxamide] registered a melting point of 193 °C. 5.52 ± 0.072 µM corresponded to half-maximal inhibition in series [1] (IC50). As to `NC(N)=S` [Thiourea, reference compound], in series [1] (urease 5 U/mL, 30 min at 37 °C, pH 8.15, triplicate, read-out: IC50 ± SEM), the IC50 was 18.93 ± 0.004 µM. On to `NC(=O)N/N=C/c1ccccn1` [Rx-7, 2-Pyridine-2-yl-methylene hydrazine carboxamide], for which, in series [1], half-maximal inhibition (IC50) was put at 2.18 ± 0.058 µM. On the same count and under the same terms, to `NC(=S)N/N=C/c1cccc(C(F)(F)F)n1` [Rx-5, 6-Trifluoromethyl pyridine-2-yl methylene hydrazine-1-carbothioamide] belongs 4.93 ± 0.012 µM.

The compound `NC(=O)N/N=C/c1cccc(Br)n1` [Rx-9, 6-Bromopyridine-2-yl methylene hydrazinecarboxamide] registered a melting point of 231 to 233 °C. The IC50 in series [1] was 14.49 ± 0.067 µM.

Regarding `Cc1cccc(/C=N/NC(N)=S)n1` [Rx-2, 6-Methylpyridine-2-yl methylene hydrazine-1-carbothioamide], half-maximal inhibition in series [1] (IC50) was put at 6.41 ± 0.023 µM. `Cc1cccc(/C=N/NC(N)=O)n1` [Rx-8, 6-Methylpyridine-2-yl methylene hydrazinecarboxamide] displayed a melting point of 218 to 219 °C. In series [1], this compound registered an IC50 of 3.41 ± 0.011 µM. As for `N/C(S)=N/N=C/c1ccccn1` [Rx-1, Pyridine-2-yl-methylene thiosemicarbazide], the IC50 in series [1] stood at 3.23 ± 0.015 µM. As for `NC(=S)N/N=C/c1ccc(Cl)cn1` [Rx-6, 5-Chloropyridine-2-yl methylene hydrazinecarbothioamide], the melting point was 244 to 246 °C. This compound also came in with an IC50 in series [1] of 1.07 ± 0.043 µM. In series [2], the “mode of inhibition (Lineweaver–Burk plot)” value was “competitive”.

In turn, `NC(=O)N/N=C/c1cccc(C(F)(F)F)n1` [Rx-11, 6-Trifluoromethyl pyridine-2-yl methylene hydrazine carboxamide] had a melting point of 233 to 235 °C. Moreover, half-maximal inhibition in series [1] (IC50) required 5.96 ± 0.005 µM. For `NC(=S)N/N=C/c1cccc(Br)n1` [Rx-3, 6-Bromopyridine-2-yl methylene hydrazine-1-carbothioamide], the melting point lay in the range of 192 to 194 °C. This compound came in with an IC50 in series [1] of 3.13 ± 0.034 µM. As for `NC(=O)N/N=C/c1ccc(Cl)cn1` [Rx-12, 5-Chloropyridine-2yl-methylene hydrazine carboxamide], the melting point is 221 to 223 °C. In series [1], this compound yielded an IC50 of 4.07 ± 0.003 µM.

`COc1cccc(/C=N/NC(N)=S)n1` [Rx-4, 6-Methoxypyridine-2-yl methylene thiosemicarbazide] registered an IC50 in series [1] of 4.21 ± 0.022 µM.
